# Where two headings read alike, the source gives them in different places. Marks after values point to notes of the source that are not given here.
# Columns and labels:
# HT1080 cells = test: Cell cycle analysis by propidium iodide flow cytometry in HT1080 cells (percent cells in S-phase, Table 24); type: cell-based, human; conditions: for % Cells In S-Phase: HT1080 cells, 100 nM, 18 hours, normoxic, DMSO control […]
# Procedure: Experimental Design. […] After treatment, cells were trypsinized, and stained with propidium iodide (PI) dye to measure DNA content of individual cells by flow cytometry. Output comprised histograms showing relative DNA content in 10,000 cells.
# While compounds which cause greater than 20% of the cells to accumulate in S-phase at 100 nM are considered active, a larger percentage of cells may be accumulated in S-phase at lower doses depending on the Compound, as shown in FIG. 12 for example.
# [1] = test system: hypoxia-inducible endogenous VEGF expression; test: Hypoxia-inducible endogenous VEGF expression ELISA in HeLa cells, dose-response EC50 (Table 3); type: cell-based, human; conditions: Homo sapiens
# How it was run: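 HeLa cells kept 24-48 h under hypoxia (1% O2, 5% CO2, nitrogen balance) with or without compound, e.g. seven concentrations; secreted VEGF in conditioned medium quantified by ELISA against a standard curve. Parallel Cell Titer Glo viability under identical conditions excludes cytotoxicity.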
# IL-6 = test: Patients: serum and plasma IL-6 levels; type: in vivo, human
# Procedure: Subjects with NF2 may receive continuous daily treatment with a Compound administered at 100 mg per dose, 2 times a day (BID) for up to 1 year, or longer as appropriate, or until tumor progression. […] Tumor shrinkage or an improvement in hearing are indicators of efficacy.
# Anti-angiogenic activity: Assessing VEGF concentrations provides a relevant and convenient mechanism-specific marker of Compound activity. […] For example, clinically validated ELISA kits (e.g., from R&D Systems, Minneapolis, Minn.) may be used to measure concentrations of VEGF, VEGF-C, P1GF, VEGFR, and inflammatory mediators such as IL-6 and IL-8. CT scan and MRI scan may also be used to assess peritumoral inflammation or edema.
# Blood for VEGF, VEGFR, and Cytokines. Two blood samples (1 for plasma and 1 for serum) may be obtained for assessment of VEGF, VEGFR, and cytokine levels.
# After processing, samples may be placed into a freezer at approximately −70° C. An ELISA-based multiplex system may be used to measure plasma VEGF and cytokine levels.
# [2] = test system: human VEGF121 and VEGF165; test: HT1080 xenograft studies #21/#23: intra-tumor and pathologic plasma human VEGF (Compound 1205); type: in vivo; conditions: for Mean difference in human plasma VEGF (%) on Day 14 / Mean difference in human tumor VEGF (%) at Day 14: 14 days
# Excerpt: Experimental Design. HT1080 cells (5×10^6 cells/mice) were implanted subcutaneously into male athymic nude mice. Treatment with vehicle alone or Compound 1205 was initiated when the median tumor volume was approximately 311±88 mm^3. Table 7 and Table 9 (study design #21 and #23) provide the study design for assessing tumor and plasma pathologic VEGF concentrations—each group in each study included eight (8) mice. When the tumors in vehicle-treated mice had reached the target size of ˜1200 mm^3 for study #21 and ˜1500 mm^3 for study #23, all mice in the study were sacrificed, and excised tumors were homogenized in buffer containing protease inhibitors. Both intra-tumor and pathologic plasma human VEGF levels were measured using an ELISA that recognizes human VEGF121 and VEGF165. Intra-tumor VEGF levels were normalized to the total tumor protein concentration and pathologic plasma VEGF levels were expressed in pg/mL. Because smaller tumors produce less VEGF per mg of tumor protein, intra-tumor VEGF levels were normalized to tumor size.
# [3] = test system: HT1080 tumor cells in vivo; test: HT1080 xenograft studies of Compound 1205, Compound #10 and Compound 1330: tumor growth; parameters: species or system athymic nude mice
# Excerpt: Experimental Design. HT1080 cells (5×10^6 cells/mouse) were implanted subcutaneously in male athymic nude mice. […] For comparison, Compound #10 was included in this study.
# T47D xenografts = test: T47D estrogen-sensitive breast cancer xenograft: tumor growth; conditions: 10 mg/kg oral QD
# Procedure: Experimental Design. Estrogen pellets (0.72 mg/pellet) were implanted 30 days prior to cell implantation and again 60 days later. T47D estrogen-sensitive breast cancer cells (5×10^6 cells/mouse mixed 1:1 with […] ™) were implanted subcutaneously in female athymic nude mice. […] Tamoxifen was included as a positive control.
# Tumor size was measured by calipers at periodic intervals. After 74 days of treatment, the mice were sacrificed.
# [4] = test system: human VEGF121 and VEGF165; test: HT1080 xenograft time course: pathologic plasma human VEGF; type: in vivo; conditions: by Day 1
# Procedure: (§1) Experimental Design. HT1080 cells (5×10^6 cells/mouse) were implanted subcutaneously in male athymic nude mice.
# Tumor size was measured by calipers immediately pre-treatment and at the time of sacrifice on Day 1, 2, or 3 (5 mice per group per day). At sacrifice, the plasma was collected for assay of pathologic human VEGF concentration using an ELISA that recognizes human VEGF121 and VEGF165 (as described in Section 9.1.1.1).
# HT1080 xenografts = test: BrdU labeling of cells from HT1080 xenografts grown in nude mice; type: in vivo, athymic nude mice; conditions: Day 1, 2, 3; Compound #10 10 mg/kg oral QD, doxorubicin 6 mg/kg IP, bevacizumab 5 mg/kg IP
# Procedure: as §1
# The mice were sacrificed 3 hours later, and the tumors collected. A single cell suspension was prepared from the tumor cells. The cells were permeabilized and an antibody to BrdU was used to stain cells that had entered S phase during the labeling period. The proportion of cells actively synthesizing DNA was determined by cell sorting.
# [5] = test system: soluble VEGF121 and VEGF165 isoforms; test: VEGF inhibition EC50 by ELISA in the same human tumor cell lines (Table 25); type: cell-based; conditions: tumor cells; data not shown
# Procedure: Results. […] The conditioned media were collected and assayed by ELISA for soluble VEGF121 and VEGF165 isoforms (as described in Section 9.1.1.1); results were calculated as percentage inhibition relative to vehicle treated controls. EC50 values were calculated from the concentration response curves.
# [6] = HeLa cells, hypoxic conditions (1% O2), 24-48 hours, VEGF in conditioned media, read-out: ELISA EC50
# [7] = HeLa cells, hypoxic conditions (1% O2), VEGF ELISA of conditioned media, read-out: ELISA EC50
smiles,measurement,setting,value
COc1ccc(C2c3[nH]c4ccc(Cl)cc4c3CCN2C(=O)Oc2ccc(Cl)cc2)cc1 (centres unmarked),% Cells In S-Phase,HT1080 cells,15.3%
O=C(Oc1ccc(F)cc1)N1CCc2c([nH]c3ccc(Cl)cc23)[C@@H]1c1ccc(OCCCn2ccnn2)cc1,% Cells In S-Phase,HT1080 cells,25.7%
COc1ccc(OC(=O)N2CCc3c([nH]c4ccc(Br)cc34)[C@H]2c2ccc(Cl)cc2)cc1,% Cells In S-Phase,HT1080 cells,16.5%
COc1ccc([C@@H]2c3[nH]c4ccc(Cl)cc4c3CCN2C(=O)Oc2ccc(Cl)cc2)cc1,% Cells In S-Phase,HT1080 cells,16.8%
O=C(Oc1ccc(F)cc1)N1CCc2c([nH]c3ccc(Cl)cc23)[C@H]1c1ccc(OCCCn2ccnn2)cc1,% Cells In S-Phase,HT1080 cells,16.4%
O=C(Oc1ccc(Cl)cc1)N1CCc2c([nH]c3ccc(Cl)cc23)C1c1ccc(OCCN2CCCCC2)cc1 (centres unmarked),% Cells In S-Phase,HT1080 cells,16.8%
C=CCOc1ccc([C@@H]2c3[nH]c4ccc(Cl)cc4c3CCN2C(=O)Oc2ccc(Cl)cc2)cc1,% Cells In S-Phase,HT1080 cells,17.9%
COc1ccc([C@H]2c3[nH]c4ccc(Cl)cc4c3CCN2C(=O)Oc2ccc(Cl)cc2)cc1 [#10],EC50,[1]; [6],< 0.008 µM
same,Serum IL-6 levels in patients (FIG. 37),IL-6,reduced
O=C(Oc1ccc(Cl)cc1)N1CCc2c([nH]c3ccc(Cl)cc23)[C@@H]1c1ccc(OCC[C@H](O)CO)cc1 [Compound 1205],EC50,[1]; [6],< 0.008 µM
same,Inhibition of pathologic plasma human VEGF levels,[2]; 0.5 or 3 mg/kg QD,more than 95%
same,Inhibition of tumor human VEGF levels,[2]; 0.5 or 3 mg/kg QD,more than 95%
same,Mean difference in human plasma VEGF (%) on Day 14,"[2]; Study #21, 0.5 mg/kg QD",97%**
same,Mean difference in human tumor VEGF (%) at Day 14,"[2]; Study #21, 0.5 mg/kg QD",95%**
same,Mean difference in human plasma VEGF (%) on Day 14,"[2]; Study #21, 3 mg/kg QD",99%
same,Mean difference in human tumor VEGF (%) at Day 14,"[2]; Study #21, 3 mg/kg QD",98%**
same,Mean difference in human plasma VEGF (%) on Day 14,"[2]; Study #23, 1 mg/kg QD",100%**
same,Mean difference in human tumor VEGF (%) at Day 14,"[2]; Study #23, 1 mg/kg QD",95** %
same,Lowest dose at which active on tumor growth,"[3]; HT1080 xenografts, QD",0.3 mg/kg
same,Mean difference in tumor growth rate at the Day that the vehicle-treated tumors taken off study,"[3]; Study 21, 0.5 mg/kg QD, Day 14",61%**
same,Final mean terminal tumor size in treatment group,"[3]; Study 21, 0.5 mg/kg QD, PD, 14 days",580 mm^3
same,Mean difference in tumor growth rate at the Day that the vehicle-treated tumors taken off study,"[3]; Study 21, 3 mg/kg QD, Day 14",80%**
same,Final mean terminal tumor size in treatment group,"[3]; Study 21, 3 mg/kg QD, PD, 14 days",379 mm^3
same,Difference vs. vehicle in median number of days to reach 1000 mm^3,"[3]; Study 22, 0.5 mg/kg QD",11 days
same,Mean difference in tumor growth rate at the Day that the vehicle-treated tumors taken off study,"[3]; Study 22, 0.5 mg/kg QD, Day 11",62%**
same,Final mean terminal tumor size in treatment group,"[3]; Study 22, 0.5 mg/kg QD, Xeno",1750 mm^3
same,Difference vs. vehicle in median number of days to reach 1000 mm^3,"[3]; Study 22, 3 mg/kg QD",14** Days
same,Mean difference in tumor growth rate at the Day that the vehicle-treated tumors taken off study,"[3]; Study 22, 3 mg/kg QD, Day 11",75%**
same,Final mean terminal tumor size in treatment group,"[3]; Study 22, 3 mg/kg QD, Xeno",1840 mm^3
same,Mean difference in tumor growth rate at the Day that the vehicle-treated tumors taken off study,"[3]; Study 23, 1 mg/kg QD, Day 14",59%**
same,Final mean terminal tumor size in treatment group,"[3]; Study 23, 1 mg/kg QD, PD, 14 days",710 mm^3
same,Difference vs. vehicle in median number of days to reach 1000 mm^3,"[3]; Study 24a, 10 mg/kg QD",14** Days
same,Mean difference in tumor growth rate at the Day that the vehicle-treated tumors taken off study,"[3]; Study 24a, 10 mg/kg QD, Day 11",76%**
same,Final mean terminal tumor size in treatment group,"[3]; Study 24a, 10 mg/kg QD, Xeno",1400 mm^3
same,Difference vs. vehicle in median number of days to reach 1000 mm^3,"[3]; Study 24b, 0.3 mg/kg QD",0.7 days
same,Mean difference in tumor growth rate at the Day that the vehicle-treated tumors taken off study,"[3]; Study 24b, 0.3 mg/kg QD, Day 15",28%
same,Final mean terminal tumor size in treatment group,"[3]; Study 24b, 0.3 mg/kg QD, Xeno",1540 mm^3
O=C(Oc1ccc(Cl)cc1)N1CCc2c([nH]c3ccc(Cl)cc23)[C@@H]1c1ccc(OC2COC2)cc1 [Compound 1701],EC50,[1]; [7],< 0.008 µM
CS(=O)(=O)Cc1cnc(Oc2ccc([C@H]3c4[nH]c5ccc(Cl)cc5c4CCN3C(=O)Oc3ccc(Cl)cc3)cc2)s1 [Compound 1702],EC50,[1]; [7],< 0.008 µM
O=C(Oc1ccc(Cl)cc1)N1CCc2c([nH]c3ccc(Cl)cc23)[C@@H]1c1ccc(OC2CCN(CC[C@H](O)CO)CC2)cc1 [Compound 1703],EC50,"[1]; HeLa, read-out: ELISA EC50 μM",0.2 to 1 µM
O=C(Oc1ccc(Cl)cc1)N1CCc2c([nH]c3ccc(Cl)cc23)[C@@H]1c1ccc(OC2CCN(C[C@H](O)CO)CC2)cc1 [Compound 1704],EC50,"[1]; HeLa, read-out: ELISA EC50 μM",0.008 to 0.04 µM
"CC/C(=C(\c1ccccc1)c1ccc(OCCN(C)C)cc1)c1ccccc1 [Tamoxifen, tamoxifen, reference compound]",Mean % Inhibition of Tumor Size vs Vehicle at Day 74,T47D xenografts,50%
"COc1cccc2c1C(=O)c1c(O)c3c(c(O)c1C2=O)C[C@@](O)(C(=O)CO)C[C@@H]3O[C@H]1C[C@H](N)[C@H](O)[C@H](C)O1 [doxorubicin, reference compound]",Pathologic plasma human VEGF levels vs control animals,[4],numerically lower than in control animals
same,BrdU staining of tumor cells (proportion of cells in S phase),HT1080 xenografts,decreased the percentage of tumor cells staining with BrdU
COc1ccc([C@H]2c3[nH]c4ccc(Cl)cc4c3CCN2C(=O)Oc2ccc(Cl)cc2)cc1 [drawing 526],% Cells In S-Phase,HT1080 cells,26.1%
COc1ccc(OC(=O)N2CCc3c([nH]c4ccc(Br)cc34)[C@@H]2c2ccc(Cl)cc2)cc1 [drawing 527],% Cells In S-Phase,HT1080 cells,26.4%
O=C(Oc1ccc(Cl)cc1)N1CCc2c([nH]c3ccc(Cl)cc23)[C@@H]1c1ccc(OCC[C@H](O)CO)cc1 [drawing 529],% Cells In S-Phase,HT1080 cells,20.0%
C=CCOc1ccc([C@H]2c3[nH]c4ccc(Cl)cc4c3CCN2C(=O)Oc2ccc(Cl)cc2)cc1 [drawing 533],% Cells In S-Phase,HT1080 cells,17.2%
O=C(Oc1ccc(Cl)cc1)N1CCc2c([nH]c3ccc(Cl)cc23)C1c1ccc(OCCN2CCOCC2)cc1 (centres unmarked) [drawing 535],% Cells In S-Phase,HT1080 cells,16.4%
O=C(Oc1ccc(F)cc1)N1CCc2c([nH]c3ccc(Cl)cc23)[C@@H]1c1ccc(OCC[C@H](O)CO)cc1 [drawing 537],% Cells In S-Phase,HT1080 cells,20.6%
O=C(Oc1ccc(Cl)cc1)N1CCc2c([nH]c3ccc(Cl)cc23)[C@H]1c1ccc(OCC[C@H](O)CO)cc1 [drawing 538],% Cells In S-Phase,HT1080 cells,17%
"NC(Cn1ccc(=O)c(O)c1)C(=O)O (centres unmarked) [mimosine, reference compound]",Effect on the cell cycle,"HT1080 cells; tumor cells, data not shown",does not delay or prolong the cell cycle
same,Effect on VEGF production,[5],does not delay or prolong the cell cycle or reduce VEGF production
